Results published in US12329733B2, “Acetyl-leucine or a pharmaceutically acceptable salt thereof for improved mobility and cognitive function” (INTRABIO LTD., priority 2016, dated 2025).

Legend:
[1] = tested on: rat model of an acute unilateral labyrinthectomy; conditions: by activation of the vestibulo-cerebellum and deactivation of the posterolateral thalamus; ref (4); cited from earlier work
[2] = tested on: patients with postural imbalance / gait disorder; subjects; test: clinical examination and patient/family reports of balance, gait, dizziness and falls; type: in vivo, human
Source text: In addition to the mobility assessments disclosed above, mobility in a subject having a mobility disorder associated with ageing may be tested, for example, using assessments of balance and/or through monitoring the number of falls experienced by the subject.

SMILES: CC(=O)N[C@@H](CC(C)C)C(=O)O [N-acetyl-L-leucine]
- effect on postural compensation [1]: significant effect

SMILES: N[C@@H](Cc1ccc(O)c(O)c1)C(=O)O [L-Dopa]
- improvement during treatment ([2]; Example 2: person, balance disorder, Datscan borderline pathological): no improvement was observed
- improvement during treatment ([2]; Example 5: patient, progressive gait disorder): No improvement was observed
